In the supplement of paper PMC11208160:

Assay: recombinant UMI read abundance after kanamycin selection (control-corrected) (log10(CPM+1)); higher = more efficient recombination; extreme values may be limits of the assay; sequences stand for … in AGTGCAGAGAAAATCGGCCAGTTTTCTCTGCCTGCAGTCCGCATGCCGTGGGACCCCTTGGGTTCTAACCTGTTGCCTAGATTTATGCAGCGGACTGCCTTTCTCCCAAAGTGATAAACCGG…AGGTTGGTTTCACT; site = the 11-nt donor
Summary of the method: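 After plating on IPTG (0.07 mM) plus kanamycin, or unselected, in two replicates, recombinant UMIs were PCR-amplified across the donor–target junction and sequenced. The cells were Escherichia coli co-electroporated with a UMI-tagged donor and donor-binding-loop pair library and a target plasmid with a fixed target and T7-inducible IS621 bridge recombinase. Values are log10(CPM+1), with CPM averaged over replicates and scaled by control-derived factors.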
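Also: IS621 bridge recombinase in Escherichia coli cells against a fixed T5 target plasmid.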

| Sequence | recombinant UMI read abundance (log10) |
| --- | --- |
| CGTACATCATGGACCGGTTTTCCCGGTAATCCGTATTTGCT (site CGTACATCTAG) | 1.39 |
| CGTACCACATGGACCGGTTTTCCCGGTAATCCGTATTTGAG (site CGTACCACTCT) | 1.06 |
| CGTAGAACATGGACCGGTTTTCCCGGTAATCCGTATTTGCC (site CGTAGAACTGG) | 2.75 |
| CGTATGGCATGGACCGGTTTTCCCGGTAATCCGTATTTGCT (site CGTATGGCTAG) | 0.895 |
| CGTATGGCATGGACCGGTTTTCCCGGTAATCCGTATTTGCT (site CGTCTGGCTAG) | 0 |
| CGTATGGCATGGACCGGTTTTCCCGGTAATCCGTATTTGCT (site CGTGTGGCTAG) | 0.0109 |
| CGTATGGCATGGACCGGTTTTCCCGGTAATCCGTATTTGCT (site CGTTTGGCTAG) | 0 |
| CGTCTATCATGGACCGGTTTTCCCGGTAATCCGTATTTGCC (site CGTCTATCTGG) | 2.64 |
| CGTCTGACATGGACCGGTTTTCCCGGTAATCCGTATTTGAC (site CGTCTGACTGT) | 0.908 |
| CGTCTGGCATGGACCGGTTTTCCCGGTAATCCGTATTTGCT (site CGTATGGCTAG) | 0 |
| CGTCTGGCATGGACCGGTTTTCCCGGTAATCCGTATTTGCT (site CGTCTGGCTAG) | 0.46 |
| CGTCTGGCATGGACCGGTTTTCCCGGTAATCCGTATTTGCT (site CGTGTGGCTAG) | 0.00552 |
| CGTCTGGCATGGACCGGTTTTCCCGGTAATCCGTATTTGCT (site CGTTTGGCTAG) | 0 |
| CGTCTTCCATGGACCGGTTTTCCCGGTAATCCGTATTTGTC (site CGTCTTCCTGA) | 1.19 |
| CGTGAGACATGGACCGGTTTTCCCGGTAATCCGTATTTGAG (site CGTAAGACTCT) | 2.08 |
| CGTGAGACATGGACCGGTTTTCCCGGTAATCCGTATTTGAG (site CGTCAGACTCT) | 0.00623 |
| CGTGAGACATGGACCGGTTTTCCCGGTAATCCGTATTTGAG (site CGTGAGACTCT) | 2.08 |
| CGTGAGACATGGACCGGTTTTCCCGGTAATCCGTATTTGAG (site CGTTAGACTCT) | 0.167 |
| CGTGCCTCATGGACCGGTTTTCCCGGTAATCCGTATTTGTC (site CGTGCCTCTGA) | 2.03 |
| CGTGGAACATGGACCGGTTTTCCCGGTAATCCGTATTTGTC (site CGTGGAACTAA) | 0 |
| CGTGGAACATGGACCGGTTTTCCCGGTAATCCGTATTTGTC (site CGTGGAACTCA) | 0.0117 |
| CGTGGAACATGGACCGGTTTTCCCGGTAATCCGTATTTGTC (site CGTGGAACTGA) | 1.94 |
| CGTGGAACATGGACCGGTTTTCCCGGTAATCCGTATTTGTC (site CGTGGAACTTA) | 0.519 |
| CGTGGACCATGGACCGGTTTTCCCGGTAATCCGTATTTGTT (site CGTGGAACTAA) | 0.00973 |
| CGTGGACCATGGACCGGTTTTCCCGGTAATCCGTATTTGTT (site CGTGGACCTAA) | 0.0211 |

| Sequence | recombinant UMI read abundance (log10) |
| --- | --- |
| CGTGGACCATGGACCGGTTTTCCCGGTAATCCGTATTTGTT (site CGTGGAGCTAA) | 0.0186 |
| CGTGGACCATGGACCGGTTTTCCCGGTAATCCGTATTTGTT (site CGTGGATCTAA) | 0.722 |
| CGTGTATCATGGACCGGTTTTCCCGGTAATCCGTATTTGAC (site CGTGTATCTGT) | 1.26 |
| CGTGTATCATGGACCGGTTTTCCCGGTAATCCGTATTTGAC (site CTAGTATCTGT) | 0 |
| CGTTAAGCATGGACCGGTTTTCCCGGTAATCCGTATTTGAA (site CGTTAAGCTTT) | 2 |
| CGTTACACATGGACCGGTTTTCCCGGTAATCCGTATTTGAG (site CGTTAAACTCT) | 0.00268 |
| CGTTACACATGGACCGGTTTTCCCGGTAATCCGTATTTGAG (site CGTTACACTCT) | 1.43 |
| CGTTACACATGGACCGGTTTTCCCGGTAATCCGTATTTGAG (site CGTTAGACTCT) | 0.0129 |
| CGTTACACATGGACCGGTTTTCCCGGTAATCCGTATTTGAG (site CGTTATACTCT) | 0.202 |
| CGTTAGACATGGACCGGTTTTCCCGGTAATCCGTATTTGAC (site CGTTAGACTAT) | 0.0518 |
| CGTTAGACATGGACCGGTTTTCCCGGTAATCCGTATTTGAC (site CGTTAGACTCT) | 0.0193 |
| CGTTAGACATGGACCGGTTTTCCCGGTAATCCGTATTTGAC (site CGTTAGACTGT) | 1.58 |
| CGTTAGACATGGACCGGTTTTCCCGGTAATCCGTATTTGAC (site CGTTAGACTTT) | 0.0068 |
| CGTTAGACATGGACCGGTTTTCCCGGTAATCCGTATTTGAG (site AGTTAGACTCT) | 0.0858 |
| CGTTAGACATGGACCGGTTTTCCCGGTAATCCGTATTTGAG (site CATTAGACTCT) | 0.498 |
| CGTTAGACATGGACCGGTTTTCCCGGTAATCCGTATTTGAG (site CCTTAGACTCT) | 0.0362 |
| CGTTAGACATGGACCGGTTTTCCCGGTAATCCGTATTTGAG (site CGATAGACTCT) | 0.838 |
| CGTTAGACATGGACCGGTTTTCCCGGTAATCCGTATTTGAG (site CGCTAGACTCT) | 0.501 |
| CGTTAGACATGGACCGGTTTTCCCGGTAATCCGTATTTGAG (site CGGTAGACTCT) | 0.157 |
| CGTTAGACATGGACCGGTTTTCCCGGTAATCCGTATTTGAG (site CGTAAGACTCT) | 0 |
| CGTTAGACATGGACCGGTTTTCCCGGTAATCCGTATTTGAG (site CGTCAGACTCT) | 0.944 |
| CGTTAGACATGGACCGGTTTTCCCGGTAATCCGTATTTGAG (site CGTGAGACTCT) | 0.0124 |
| CGTTAGACATGGACCGGTTTTCCCGGTAATCCGTATTTGAG (site CGTTAAACTCT) | 0.893 |
| CGTTAGACATGGACCGGTTTTCCCGGTAATCCGTATTTGAG (site CGTTACACTCT) | 0.00825 |
| CGTTAGACATGGACCGGTTTTCCCGGTAATCCGTATTTGAG (site CGTTAGACTAT) | 1.08 |

| Sequence | recombinant UMI read abundance (log10) |
| --- | --- |
| CGTTAGACATGGACCGGTTTTCCCGGTAATCCGTATTTGAG (site CGTTAGACTCA) | 0.0196 |
| CGTTAGACATGGACCGGTTTTCCCGGTAATCCGTATTTGAG (site CGTTAGACTCC) | 0.374 |
| CGTTAGACATGGACCGGTTTTCCCGGTAATCCGTATTTGAG (site CGTTAGACTCG) | 0 |
| CGTTAGACATGGACCGGTTTTCCCGGTAATCCGTATTTGAG (site CGTTAGACTCT) | 1.55 |
| CGTTAGACATGGACCGGTTTTCCCGGTAATCCGTATTTGAG (site CGTTAGACTGT) | 0.00425 |
| CGTTAGACATGGACCGGTTTTCCCGGTAATCCGTATTTGAG (site CGTTAGACTTT) | 0.315 |
| CGTTAGACATGGACCGGTTTTCCCGGTAATCCGTATTTGAG (site CGTTAGCCTCT) | 0.021 |
| CGTTAGACATGGACCGGTTTTCCCGGTAATCCGTATTTGAG (site CGTTAGGCTCT) | 0.214 |
| CGTTAGACATGGACCGGTTTTCCCGGTAATCCGTATTTGAG (site CGTTAGTCTCT) | 0.506 |
| CGTTAGACATGGACCGGTTTTCCCGGTAATCCGTATTTGAG (site CGTTATACTCT) | 0.0136 |
| CGTTAGACATGGACCGGTTTTCCCGGTAATCCGTATTTGAG (site CGTTCGACTCT) | 0.00605 |
| CGTTAGACATGGACCGGTTTTCCCGGTAATCCGTATTTGAG (site CGTTGGACTCT) | 0.013 |
| CGTTAGACATGGACCGGTTTTCCCGGTAATCCGTATTTGAG (site CGTTTGACTCT) | 0.0164 |
| CGTTAGACATGGACCGGTTTTCCCGGTAATCCGTATTTGAG (site CTTTAGACTCT) | 0.00778 |
| CGTTAGACATGGACCGGTTTTCCCGGTAATCCGTATTTGAG (site GGTTAGACTCT) | 0.0132 |
| CGTTAGACATGGACCGGTTTTCCCGGTAATCCGTATTTGAG (site TGTTAGACTCT) | 0.0126 |
| CGTTAGACATGGACCGGTTTTCCCGGTAATCCGTATTTGGG (site CGTTAGACTCA) | 0 |
| CGTTAGACATGGACCGGTTTTCCCGGTAATCCGTATTTGGG (site CGTTAGACTCC) | 0.0132 |
| CGTTAGACATGGACCGGTTTTCCCGGTAATCCGTATTTGGG (site CGTTAGACTCG) | 0.0116 |
| CGTTAGACATGGACCGGTTTTCCCGGTAATCCGTATTTGGG (site CGTTAGACTCT) | 0.512 |
| CGTTAGACATGGACCGGTTTTCCCGGTAATCCGTATTTGTG (site CGTTAGACTCA) | 1.14 |
| CGTTAGACATGGACCGGTTTTCCCGGTAATCCGTATTTGTG (site CGTTAGACTCC) | 0.0241 |
| CGTTAGACATGGACCGGTTTTCCCGGTAATCCGTATTTGTG (site CGTTAGACTCG) | 0.198 |
| CGTTAGACATGGACCGGTTTTCCCGGTAATCCGTATTTGTG (site CGTTAGACTCT) | 0.0332 |
| CGTTAGTCATGGACCGGTTTTCCCGGTAATCCGTATTTGAG (site CGTTAGACTCT) | 0.0321 |
